Results published in the supplement of paper PMC11451515.

How the values were obtained:
Settings in all cases: 48 h
NOMO1 [1] = experiment: cell viability relative to DMSO control; higher = less cytotoxic
Summary of the method: (§1)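 Before seeding, each leukemia line was adapted for at least four passages in each medium. NOMO1 or SEM cells (500 cells/well) and P12-Ichikawa cells (1000 cells/well) went into 1536-well plates at 5 μl, then received library compounds in DMSO by pin dosing across 11 threefold concentrations, 47 μM to 0.79 nM. Readout was CellTiter-Glo One luminescence after 48 h at 37°C, and viability is given as a per-plate percentage of DMSO wells, with cell-free wells as background.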

P12-Ichikawa [2] = experiment: as above
Summary of the method: as §1

SEM cells [3] = experiment: as above
Summary of the method: as §1

NOMO1 [4] = experiment: AUC of viability dose-response curve (% viability x log10 dose units); higher = less sensitive
Summary of the method: (§2)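 Viability of medium-adapted leukemia cells was measured by CellTiter-Glo One luminescence after 48 h at 37°C with library compounds in DMSO. Doses were 11 threefold steps from 47 μM to 0.79 nM, in 1536-well plates at 500 or 1000 cells/well. Signals were normalised per plate to DMSO and cell-free wells and fitted with a four-parameter log-logistic model on log10 dose. Area under the curve was integrated by trapezoidal rule, with curves exceeding full viability scaled and failed quality-control curves removed.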

P12-Ichikawa [5] = experiment: as above
Summary of the method: as §2

SEM cells [6] = experiment: as above
Summary of the method: as §2

C=C1C(=O)O[C@@H]2[C@H]3O[C@]3(C)CC/C=C(\C)CC[C@@H]12
cell viability [%]
Settings	NOMO1 [1]	P12-Ichikawa [2]	SEM cells [3]
HPLM + 10% dialyzed FBS, 0.000781 µM	110	106	96.1
HPLM + 10% dialyzed FBS, 0.00234 µM	117	104	99.9
HPLM + 10% dialyzed FBS, 0.00702 µM	110	114	122
HPLM + 10% dialyzed FBS, 0.0211 µM	115	114	104
HPLM + 10% dialyzed FBS, 0.0632 µM	117	119	116
HPLM + 10% dialyzed FBS, 0.19 µM	142	124	115
HPLM + 10% dialyzed FBS, 0.569 µM	114	122	98.5
HPLM + 10% dialyzed FBS, 1.71 µM	93.8	79.6	40.5
HPLM + 10% dialyzed FBS, 5.12 µM	15.9	5.39	4.45
HPLM + 10% dialyzed FBS, 15.4 µM	14.9	2.97	3.12
HPLM + 10% dialyzed FBS, 46.1 µM	3.29	2.95	4
RPMI 5 mM glucose + 10% FBS, 0.000781 µM	115	103	81.4
RPMI 5 mM glucose + 10% FBS, 0.00234 µM	121	109	84.9
RPMI 5 mM glucose + 10% FBS, 0.00702 µM	116	117	103
RPMI 5 mM glucose + 10% FBS, 0.0211 µM	113	117	93.9
RPMI 5 mM glucose + 10% FBS, 0.0632 µM	112	127	87.6
RPMI 5 mM glucose + 10% FBS, 0.19 µM	108	127	73
RPMI 5 mM glucose + 10% FBS, 0.569 µM	106	125	69.5
RPMI 5 mM glucose + 10% FBS, 1.71 µM	102	101	19.9
RPMI 5 mM glucose + 10% FBS, 5.12 µM	46.4	13.5	2.98
RPMI 5 mM glucose + 10% FBS, 15.4 µM	5.46	3.52	1.9
RPMI 5 mM glucose + 10% FBS, 46.1 µM	3.54	2.86	2.67
RPMI 5 mM glucose + 10% dialyzed FBS, 0.000781 µM	98.1	105	104
RPMI 5 mM glucose + 10% dialyzed FBS, 0.00234 µM	103	112	97
RPMI 5 mM glucose + 10% dialyzed FBS, 0.00702 µM	104	118	102
RPMI 5 mM glucose + 10% dialyzed FBS, 0.0211 µM	113	125	114
RPMI 5 mM glucose + 10% dialyzed FBS, 0.0632 µM	114	127	106
RPMI 5 mM glucose + 10% dialyzed FBS, 0.19 µM	124	123	105
RPMI 5 mM glucose + 10% dialyzed FBS, 0.569 µM	112	121	95.9
RPMI 5 mM glucose + 10% dialyzed FBS, 1.71 µM	99.1	91.8	42.4
RPMI 5 mM glucose + 10% dialyzed FBS, 5.12 µM	62.3	5.63	3.46
RPMI 5 mM glucose + 10% dialyzed FBS, 15.4 µM	6.1	2.98	1.79
RPMI 5 mM glucose + 10% dialyzed FBS, 46.1 µM	3.17	2.57	3.03

AUC of viability dose-response curve
Settings	NOMO1 [4]	P12-Ichikawa [5]	SEM cells [6]
HPLM + 10% dialyzed FBS	360	347	328
RPMI 5 mM glucose + 10% FBS	375	358	275
RPMI 5 mM glucose + 10% dialyzed FBS	386	351	329

Cc1ccc(C)c(OCCCC(C)(C)C(=O)O)c1
cell viability [%]
Settings	NOMO1 [1]	P12-Ichikawa [2]	SEM cells [3]
HPLM + 10% dialyzed FBS, 0.000781 µM	92.3	87	83.8
HPLM + 10% dialyzed FBS, 0.00234 µM	84.2	92.4	81.2
HPLM + 10% dialyzed FBS, 0.00702 µM	93	90.8	99.6
HPLM + 10% dialyzed FBS, 0.0211 µM	95.6	95	85.3
HPLM + 10% dialyzed FBS, 0.0632 µM	89.9	101	97.3
HPLM + 10% dialyzed FBS, 0.19 µM	102	97.9	94.9
HPLM + 10% dialyzed FBS, 0.569 µM	105	93.2	92.5
HPLM + 10% dialyzed FBS, 1.71 µM	88.4	102	92.7
HPLM + 10% dialyzed FBS, 5.12 µM	98.9	106	92.6
HPLM + 10% dialyzed FBS, 15.4 µM	104	98	98.5
HPLM + 10% dialyzed FBS, 46.1 µM	98.3	92.1	96.8
RPMI 5 mM glucose + 10% FBS, 0.000781 µM	78.1	90	97.1
RPMI 5 mM glucose + 10% FBS, 0.00234 µM	93.7	86.9	87.2
RPMI 5 mM glucose + 10% FBS, 0.00702 µM	101	84.5	87.9
RPMI 5 mM glucose + 10% FBS, 0.0211 µM	94.1	90.7	97.9
RPMI 5 mM glucose + 10% FBS, 0.0632 µM	85.5	91.1	94.8
RPMI 5 mM glucose + 10% FBS, 0.19 µM	105	92.9	103
RPMI 5 mM glucose + 10% FBS, 0.569 µM	99.4	89	88.7
RPMI 5 mM glucose + 10% FBS, 1.71 µM	88.7	91.7	93.9
RPMI 5 mM glucose + 10% FBS, 5.12 µM	92.1	84.1	103
RPMI 5 mM glucose + 10% FBS, 15.4 µM	96.5	92.4	103
RPMI 5 mM glucose + 10% FBS, 46.1 µM	92.9	97.1	92.1
RPMI 5 mM glucose + 10% dialyzed FBS, 0.000781 µM	76.5	81.2	91
RPMI 5 mM glucose + 10% dialyzed FBS, 0.00234 µM	92	82.9	104
RPMI 5 mM glucose + 10% dialyzed FBS, 0.00702 µM	88.9	84.3	93.1
RPMI 5 mM glucose + 10% dialyzed FBS, 0.0211 µM	94.1	92.6	90.7
RPMI 5 mM glucose + 10% dialyzed FBS, 0.0632 µM	96.1	84.5	104
RPMI 5 mM glucose + 10% dialyzed FBS, 0.19 µM	103	87.7	91.9
RPMI 5 mM glucose + 10% dialyzed FBS, 0.569 µM	101	85.5	102
RPMI 5 mM glucose + 10% dialyzed FBS, 1.71 µM	81.3	86.6	87.1
RPMI 5 mM glucose + 10% dialyzed FBS, 5.12 µM	88.3	88.8	99.5
RPMI 5 mM glucose + 10% dialyzed FBS, 15.4 µM	106	88	108
RPMI 5 mM glucose + 10% dialyzed FBS, 46.1 µM	96.2	90	95.5

AUC of viability dose-response curve
Settings	NOMO1 [4]	P12-Ichikawa [5]	SEM cells [6]
HPLM + 10% dialyzed FBS	457	458	442
RPMI 5 mM glucose + 10% FBS	449	429	456
RPMI 5 mM glucose + 10% dialyzed FBS	447	413	453
